Entries after “also recorded” stand apart in the source; their conditions may differ. Where two headings read alike, the source gives them in different places.
Key:
[1] = target: T1, CYP1A2 (Homo sapiens, UniProt P05177); assay: CYP1A2 fluorescence-based high throughput inhibition assay; type: in vitro ADME; conditions: graded by inhibition evaluation standards
T1 sequence (P05177 1-516): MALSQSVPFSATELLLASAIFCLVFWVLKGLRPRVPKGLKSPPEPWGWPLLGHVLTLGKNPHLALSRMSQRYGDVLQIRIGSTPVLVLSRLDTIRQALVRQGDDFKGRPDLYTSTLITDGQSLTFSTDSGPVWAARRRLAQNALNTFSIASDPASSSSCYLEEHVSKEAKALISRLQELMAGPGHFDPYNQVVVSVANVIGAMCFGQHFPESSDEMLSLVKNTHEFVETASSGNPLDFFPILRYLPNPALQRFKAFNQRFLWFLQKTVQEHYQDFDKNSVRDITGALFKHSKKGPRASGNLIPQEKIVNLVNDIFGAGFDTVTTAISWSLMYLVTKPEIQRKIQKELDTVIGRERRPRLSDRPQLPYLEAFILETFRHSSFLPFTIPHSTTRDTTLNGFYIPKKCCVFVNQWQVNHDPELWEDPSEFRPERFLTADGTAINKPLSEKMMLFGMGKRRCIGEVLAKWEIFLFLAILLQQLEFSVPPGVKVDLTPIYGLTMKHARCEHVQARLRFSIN

[2] = target: T2, CYP2C19 (Homo sapiens, UniProt P33261); assay: CYP2C19 fluorescence-based high throughput inhibition assay; type: in vitro ADME; conditions: graded by inhibition evaluation standards
[3] = target: T3, CYP2D6 (Homo sapiens, UniProt P10635); assay: CYP2D6 fluorescence-based high throughput inhibition assay; type: in vitro ADME; conditions: graded by inhibition evaluation standards
[4] = target: CYP2E1 (Homo sapiens, UniProt P05181); assay: CYP2E1 inhibition, HPLC-UV assay of 6-hydroxychlorzoxazone formation; type: in vitro ADME; conditions: graded by inhibition evaluation standards
[5] = target: CYP3A4 (Homo sapiens, UniProt P08684); assay: CYP3A4 fluorescence-based high throughput inhibition assay; type: in vitro ADME; conditions: graded by inhibition evaluation standards
[6] = target: T2, CYP2C19; conditions: HLMs; cited from earlier work
[7] = target: T3, CYP2D6; conditions: HLMs; cited from earlier work
[8] = tested on: rheumatoid arthritis; conditions: 500 mg daily for 8 weeks, 50 women with rheumatoid arthritis; cited from earlier work
[9] = cited from earlier work
[10] = tested on: CYP3A2; conditions: diabetic rats, single dose TQ; cited from earlier work

T2 sequence (P33261 whole entry): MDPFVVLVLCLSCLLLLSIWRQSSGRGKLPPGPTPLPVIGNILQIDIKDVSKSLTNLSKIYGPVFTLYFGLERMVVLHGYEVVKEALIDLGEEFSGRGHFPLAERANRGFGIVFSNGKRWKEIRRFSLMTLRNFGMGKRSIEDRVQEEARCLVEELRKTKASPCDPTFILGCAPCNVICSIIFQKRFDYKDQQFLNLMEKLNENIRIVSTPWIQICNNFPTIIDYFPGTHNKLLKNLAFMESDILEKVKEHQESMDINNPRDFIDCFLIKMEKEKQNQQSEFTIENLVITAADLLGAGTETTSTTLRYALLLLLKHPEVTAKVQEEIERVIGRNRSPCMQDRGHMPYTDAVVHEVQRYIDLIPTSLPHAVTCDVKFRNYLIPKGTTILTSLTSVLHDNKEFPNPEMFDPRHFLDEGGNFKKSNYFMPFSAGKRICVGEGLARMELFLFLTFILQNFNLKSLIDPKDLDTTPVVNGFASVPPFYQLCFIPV
T3 sequence (P10635 whole entry): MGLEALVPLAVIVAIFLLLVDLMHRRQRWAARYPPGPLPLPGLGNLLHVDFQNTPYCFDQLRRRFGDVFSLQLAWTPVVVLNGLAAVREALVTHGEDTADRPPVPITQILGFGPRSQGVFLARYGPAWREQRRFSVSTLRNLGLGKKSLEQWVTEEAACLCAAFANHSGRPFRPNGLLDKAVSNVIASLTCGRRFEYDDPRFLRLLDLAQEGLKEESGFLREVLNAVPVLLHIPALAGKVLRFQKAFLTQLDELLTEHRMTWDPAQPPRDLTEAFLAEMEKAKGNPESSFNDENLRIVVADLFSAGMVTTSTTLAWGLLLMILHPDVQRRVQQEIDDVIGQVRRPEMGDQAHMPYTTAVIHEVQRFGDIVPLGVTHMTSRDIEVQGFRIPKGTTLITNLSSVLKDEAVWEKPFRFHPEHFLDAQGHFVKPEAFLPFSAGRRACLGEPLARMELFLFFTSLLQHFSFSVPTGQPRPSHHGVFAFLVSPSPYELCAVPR
Sequence of CYP3A4 (P08684 whole entry): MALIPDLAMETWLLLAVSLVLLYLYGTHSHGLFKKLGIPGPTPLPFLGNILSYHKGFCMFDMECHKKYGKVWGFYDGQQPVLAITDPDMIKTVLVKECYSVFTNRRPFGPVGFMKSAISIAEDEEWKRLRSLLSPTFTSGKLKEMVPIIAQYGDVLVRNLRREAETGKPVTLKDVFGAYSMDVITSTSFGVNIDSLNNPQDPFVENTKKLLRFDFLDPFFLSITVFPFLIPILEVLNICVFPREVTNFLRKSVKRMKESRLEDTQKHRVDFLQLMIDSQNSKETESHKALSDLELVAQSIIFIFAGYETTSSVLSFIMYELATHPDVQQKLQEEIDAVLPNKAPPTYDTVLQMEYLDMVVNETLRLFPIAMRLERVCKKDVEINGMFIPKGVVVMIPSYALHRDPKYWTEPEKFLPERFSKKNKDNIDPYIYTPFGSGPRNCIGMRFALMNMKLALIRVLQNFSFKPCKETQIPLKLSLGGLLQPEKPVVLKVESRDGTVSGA
Sequence of CYP2E1 (P05181 whole entry): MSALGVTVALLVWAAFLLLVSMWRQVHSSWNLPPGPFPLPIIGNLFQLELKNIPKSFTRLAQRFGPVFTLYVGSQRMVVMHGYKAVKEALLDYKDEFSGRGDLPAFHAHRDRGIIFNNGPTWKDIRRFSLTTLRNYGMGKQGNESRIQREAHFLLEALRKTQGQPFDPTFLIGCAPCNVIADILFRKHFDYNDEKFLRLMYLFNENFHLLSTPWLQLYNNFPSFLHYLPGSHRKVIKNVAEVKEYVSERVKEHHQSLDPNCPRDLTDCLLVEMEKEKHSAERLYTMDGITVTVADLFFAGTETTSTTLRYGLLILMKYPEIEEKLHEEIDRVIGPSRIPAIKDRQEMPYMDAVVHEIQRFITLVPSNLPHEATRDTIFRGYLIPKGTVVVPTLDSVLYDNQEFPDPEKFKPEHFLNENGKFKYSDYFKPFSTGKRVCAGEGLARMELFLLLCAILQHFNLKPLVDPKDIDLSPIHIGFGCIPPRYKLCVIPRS

Compound: O=c1c(O)c(-c2ccc(O)c(O)c2)oc2cc(O)cc(O)c12 [QR, Quercetin]
- inhibitory effect on CYP1A2 activity (in words) [1]: neither QR nor TQ has any significant inhibitory effect
- inhibitory effect on CYP2C19 activity (in words) [2]: moderate inhibitory effect; also recorded: moderate inhibitors
- inhibitory effect on CYP2D6 activity (in words) [3]: strong inhibitory effect
- inhibitory effect on CYP2E1 activity (in words) [4]: neither QR nor TQ has any significant inhibitory effect
- inhibitory effect on CYP3A4 activity (in words) [5]: moderate to strong inhibitory effect
- inhibition of CYP2C19 (in words) [6]: potent competitive inhibitor
- inhibition of CYP2D6 (in words) [7]: moderate competitive inhibitor
- clinical symptoms, disease activity, hs-TNF-α and erythrocyte sedimentation rate [8]: significant improvements

Compound: CC1=CC(=O)C(C(C)C)=CC1=O [TQ, Thymoquinone]
- inhibitory effect on CYP1A2 activity (in words) [1]: neither QR nor TQ has any significant inhibitory effect
- inhibitory effect on CYP2C19 activity (in words) [2]: moderate inhibitory effect
- inhibitory effect on CYP2D6 activity (in words) [3]: no inhibitory effect
- inhibitory effect on CYP2E1 activity (in words) [4]: neither QR nor TQ has any significant inhibitory effect
- inhibitory effect on CYP3A4 activity (in words) [5]: moderate to strong inhibitory effect
- increase in t½ of glibenclamide ([9]; chronic administration of TQ): 92%
- increase in AUC of glibenclamide ([9]; diabetic rats, single dose TQ): 32.0%
- increase in t½ of glibenclamide ([9]; diabetic rats, single dose TQ): 17.4%
- hepatic protein expressions of CYP3A2 enzymes [10]: marked decrease
